Measurements taken from patent US20250320213A1, “Nitrogen-Containing Heterocyclic Compounds” (Pfizer Inc., priority 2024, published 2025).
Structures can show the parent of a compound that is named as a salt. Where two headings read alike, the source gives them in different places.

What was measured:
[1] = tested on: CCL17 secretion in peripheral human whole blood; assay: Human Whole Blood (HWB) CCL17 TR-FRET Assay (IL-13 stimulated CCL17 secretion); format: cell-based
In short: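 TR-FRET sandwich immunoassay (665/615 nm ratio) read CCL17 in serum from heparinized whole blood after 16 h RT detection. Blood was exposed to compound for 2 h at 37 °C, then to 10 ng/mL IL-13 (final) for 48 h. IC50 from 11-point, 3-fold titrations in duplicate.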

[2] = molecular target: T1, STAT6 (Homo sapiens, UniProt P42226); assay: STAT6 Reporter Luciferase Assay (IL-13 stimulated HaCaT keratinocyte NanoLuc reporter cells); format: cell-based; conditions: read-out: Reporter EC50
T1 construct: stably transfected HaCaT keratinocyte cell line, which expresses NanoLuc luciferase reporter gene under the transcriptional control of the STAT6 responsive promoter; endogenous in cells; host or cells: HaCaT keratinocyte reporter cell line (stably transfected with a NanoLuc reporter)
T1 sequence (P42226 1-847): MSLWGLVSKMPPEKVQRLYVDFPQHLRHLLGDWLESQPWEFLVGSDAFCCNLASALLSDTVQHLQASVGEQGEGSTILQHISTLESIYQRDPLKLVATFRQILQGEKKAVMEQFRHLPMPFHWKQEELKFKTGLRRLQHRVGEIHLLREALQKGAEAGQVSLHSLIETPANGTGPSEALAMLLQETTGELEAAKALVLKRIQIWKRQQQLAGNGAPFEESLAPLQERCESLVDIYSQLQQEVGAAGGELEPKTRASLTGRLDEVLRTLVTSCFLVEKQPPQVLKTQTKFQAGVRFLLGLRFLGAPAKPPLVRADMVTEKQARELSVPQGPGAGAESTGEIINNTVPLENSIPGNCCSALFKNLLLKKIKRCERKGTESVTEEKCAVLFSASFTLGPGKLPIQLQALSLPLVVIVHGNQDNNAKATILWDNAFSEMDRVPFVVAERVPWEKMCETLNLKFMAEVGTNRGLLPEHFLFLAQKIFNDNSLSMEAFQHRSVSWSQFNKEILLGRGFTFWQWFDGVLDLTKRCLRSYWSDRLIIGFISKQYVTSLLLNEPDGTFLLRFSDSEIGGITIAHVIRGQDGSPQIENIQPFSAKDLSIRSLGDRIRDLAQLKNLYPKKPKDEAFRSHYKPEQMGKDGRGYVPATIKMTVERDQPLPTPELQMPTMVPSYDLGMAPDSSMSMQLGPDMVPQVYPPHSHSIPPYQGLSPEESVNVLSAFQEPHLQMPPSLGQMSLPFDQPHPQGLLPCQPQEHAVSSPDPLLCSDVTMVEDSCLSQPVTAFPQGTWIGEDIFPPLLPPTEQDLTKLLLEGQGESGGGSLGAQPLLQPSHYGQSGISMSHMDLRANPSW
In short: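 HaCaT cells stably carrying a NanoLuc reporter driven by the STAT6-responsive IL-13Ra2 promoter were preincubated with compounds for 2 h at 37 °C in 2% FBS medium. Cells were then stimulated with 0.12 nM IL-13 for 4 h, and luminescence was read after Nano-Glo substrate. Compounds ran as 11-point 4-fold dilutions in duplicate.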

[3] = Homo sapiens, 48 h, human whole blood, IL-13 stimulated
[4] = IL-13 stimulated HaCaT STAT6 NanoLuc reporter cells
[5] = Homo sapiens, 48 h, human whole blood, 10 ng/mL IL13, 48 hours
[6] = Homo sapiens, 48 h, inhibition of CCL17 secretion in human whole blood, 10 ng/mL IL13, 48 hours
[7] = STAT6 NanoLuc luciferase reporter, IL-13 stimulated HaCaT keratinocyte cells
[8] = human whole blood, IL-13 stimulated, 48 hours

Row | SMILES | IC50 [1, 3] [nM] | EC50 [2, 4] [nM] | other results
1 | CCn1nc(C(=O)NCc2ccc(C(N)=O)cc2)c2c1[C@@H](C)CN(c1ccc(N3CCCC3=O)cn1)C2 [Example 389, (S)-N-(4-carbamoylbenzyl)-1-ethyl-7-methyl-5-(5-(2-oxopyrrolidin-1-yl)pyridin-2-yl)-4,5,6,7-tetrahydro-1H-pyrazolo[4,3-c]pyridine-3-carboxamide] | 17 | 6 | 
2 | CC(C)n1nc(C(=O)NCc2ccc(NC(=O)N(C)C)cn2)c2c1C[C@H](C)N(c1ccc(C(=O)N(C)C)cn1)C2 [Example 535, (S)-5-(5-(dimethylcarbamoyl)pyridin-2-yl)-N-((5-(3,3-dimethylureido)pyridin-2-yl)methyl)-1-isopropyl-6-methyl-4,5,6,7-tetrahydro-1H-pyrazolo[4,3-c]pyridine-3-carboxamide] |  | 5 | IC50 [1, 5]: 13 nM
3 | CNC(=O)c1ccc(CNC(=O)c2nn(C)c3c2CN(c2ccc(C(=O)N(C)C)cn2)CC3)cc1 [Example 15, 5-(5-(dimethylcarbamoyl)pyridin-2-yl)-1-methyl-N-(4-(methylcarbamoyl)benzyl)-4,5,6,7-tetrahydro-1H-pyrazolo[4,3-c]pyridine-3-carboxamide] |  |  | IC50 [1, 6]: 1160 nM; EC50 [2, 7]: 159 nM
4 | CCn1nc(C(=O)NCc2ccc(C(=O)NC)cc2)c2c1C(C(F)(F)F)CN(c1ccc(C(=O)N(C)C)cn1)C2 (single isomer, unassigned) [Example 468, rel-(R or S)-5-(5-(dimethylcarbamoyl)pyridin-2-yl)-1-ethyl-N-(4-(methylcarbamoyl)benzyl)-7-(trifluoromethyl)-4,5,6,7-tetrahydro-1H-pyrazolo[4,3-c]pyridine-3-carboxamide] |  | 2.2 | IC50 [1, 8]: 12 nM
5 | CCOC(=O)Nc1ccc(CNC(=O)c2nn(C(C)C)c3c2CN(c2ncc(C(=O)N(C)C)cn2)C[C@@H]3C)cc1 [Example 503, ethyl (S)-(4-((5-(5-(dimethylcarbamoyl)pyrimidin-2-yl)-1-isopropyl-7-methyl-4,5,6,7-tetrahydro-1H-pyrazolo[4,3-c]pyridine-3-carboxamido)methyl)phenyl)carbamate] | 13 | 1 | 
6 | CN(C)C(=O)Nc1ccc(CNC(=O)c2nn(C34CC(C3)C4)c3c2CN(c2ccc(C(=O)N(C)C)cn2)CC3)cc1 [Example 104, 1-(bicyclo[1.1.1]pentan-1-yl)-5-(5-(dimethylcarbamoyl)pyridin-2-yl)-N-(4-(3,3-dimethylureido)benzyl)-4,5,6,7-tetrahydro-1H-pyrazolo[4,3-c]pyridine-3-carboxamide] |  |  | IC50 [1, 6]: 107 nM; EC50 [2, 7]: 7 nM
7 | CC(C)n1nc(C(=O)NCc2ccc(NC(=O)N(C)C)cn2)c2c1[C@@H](C)CN(c1ccc(C(=O)N(C)C)cn1)C2 [Example 350, (S)-5-(5-(dimethylcarbamoyl)pyridin-2-yl)-N-((5-(3,3-dimethylureido)pyridin-2-yl)methyl)-1-isopropyl-7-methyl-4,5,6,7-tetrahydro-1H-pyrazolo[4,3-c]pyridine-3-carboxamide] | 6 | 2 | 
8 | CCC1CN(c2ccc(C(=O)N(C)C)cn2)Cc2c(C(=O)NCc3ccc(NC(=O)N(C)C)cc3)nc(C)n21 (single isomer, unassigned) [Example 336, rel-(R or S)-7-(5-(dimethylcarbamoyl)pyridin-2-yl)-N-(4-(3,3-dimethylureido)benzyl)-5-ethyl-3-methyl-5,6,7,8-tetrahydroimidazo[1,5-a]pyrazine-1-carboxamide] | 41 | 14 | 
9 | CC1CN(c2ccc(C(=O)N(C)C)cn2)Cc2c(C(=O)NCc3ccc(NC(=O)N(C)C)cc3)nn(C3COC3)c21 (racemic) [Example 321, rac-(R)-5-(5-(dimethylcarbamoyl)pyridin-2-yl)-N-(4-(3,3-dimethylureido)benzyl)-7-methyl-1-(oxetan-3-yl)-4,5,6,7-tetrahydro-1H-pyrazolo[4,3-c]pyridine-3-carboxamide] | 22 | 3 | 
10 | CN(C)C(=O)Nc1ccc(CNC(=O)c2nnn3c2CN(c2ccc(C(=O)N(C)C)cn2)CC3)cc1 [Example 24, 5-(5-(dimethylcarbamoyl)pyridin-2-yl)-N-(4-(3,3-dimethylureido)benzyl)-4,5,6,7-tetrahydro-[1,2,3]triazolo[1,5-a]pyrazine-3-carboxamide] |  |  | IC50 [1, 6]: 346 nM; EC50 [2, 7]: 384 nM
11 | CN(C)C(=O)Nc1ccc(CNC(=O)c2ncn3c2CN(c2ccc(C(=O)N(C)C)cn2)CC3)cc1 [Example 17, 7-(5-(dimethylcarbamoyl)pyridin-2-yl)-N-(4-(3,3-dimethylureido)benzyl)-5,6,7,8-tetrahydroimidazo[1,5-a]pyrazine-1-carboxamide] |  |  | IC50 [1, 6]: 291 nM; EC50 [2, 7]: 322 nM
12 | CN[C@H]1CCCN(C(=O)Nc2ccc(CNC(=O)c3nn(C(C)C)c4c3CN(c3ccc(C(=O)N(C)C)cc3)C[C@@H]4C)cc2F)C1 [Example 569, (S)-5-(4-(dimethylcarbamoyl)phenyl)-N-(3-fluoro-4-((S)-3-(methylamino)piperidine-1-carboxamido)benzyl)-1-isopropyl-7-methyl-4,5,6,7-tetrahydro-1H-pyrazolo[4,3-c]pyridine-3-carboxamide] |  | 4 | IC50 [1, 5]: 20 nM
13 | CCn1nc(C(=O)NCc2ccc(C(=O)NC)cc2)c2c1[C@@H](C)CN(c1ccc(N3CCCC3=O)cn1)C2 [Example 388, (S)-1-ethyl-7-methyl-N-(4-(methylcarbamoyl)benzyl)-5-(5-(2-oxopyrrolidin-1-yl)pyridin-2-yl)-4,5,6,7-tetrahydro-1H-pyrazolo[4,3-c]pyridine-3-carboxamide] | 29 | 8 | 
14 | CN(C)C(=O)Nc1ccc(CNC(=O)c2nn(C)c3c2[C@H]2CCC[C@@H](C3)N2c2ccc(C(=O)N(C)C)cn2)cc1 (single isomer, unassigned) [Example 274] | 4770 | 695 | 
15 | CN(C)C(=O)Nc1ccc(CNC(=O)c2nn(C3CCOC3)c3c2CN(c2ccc(C(=O)N(C)C)cn2)CC3)cc1 (single isomer, unassigned) [Example 191, rel-(R or S)-5-(5-(dimethylcarbamoyl)pyridin-2-yl)-N-(4-(3,3-dimethylureido)benzyl)-1-(tetrahydrofuran-3-yl)-4,5,6,7-tetrahydro-1H-pyrazolo[4,3-c]pyridine-3-carboxamide] |  | 32 | IC50 [1, 8]: 126 nM
16 | COCC1(N)CCN(C(=O)Nc2ccc(CNC(=O)c3nn(C(C)C)c4c3CN(c3ccc(C(=O)N(C)C)cc3)C[C@@H]4C)cc2F)CC1 [Example 639, (S)-N-(4-(4-amino-4-(methoxymethyl)piperidine-1-carboxamido)-3-fluorobenzyl)-5-(4-(dimethylcarbamoyl)phenyl)-1-isopropyl-7-methyl-4,5,6,7-tetrahydro-1H-pyrazolo[4,3-c]pyridine-3-carboxamide] |  | 1 | IC50 [1, 5]: 8 nM
17 | CN(C)C(=O)Nc1ccc(CNC(=O)c2nn(C3CC3)c3c2CN(c2ccc(C(=O)N(C)C)cn2)CC3)cc1 [Example 10, 1-Cyclopropyl-5-(5-(dimethylcarbamoyl)pyridin-2-yl)-N-(4-(3,3-dimethylureido)benzyl)-4,5,6,7-tetrahydro-1H-pyrazolo[4,3-c]pyridine-3-carboxamide trifluoroacetate] |  |  | IC50 [1, 6]: 94 nM; EC50 [2, 7]: 11 nM
18 | CC(C)n1nc(C(=O)NCc2ccc(NC(=O)N(C)C)cc2)c2c1[C@@H](C)CN(c1ccc(C(=O)N(C)CC3CN(C)C3)cc1)C2 [Example 629, (S)-N-(4-(3,3-dimethylureido)benzyl)-1-isopropyl-7-methyl-5-(4-(methyl((1-methylazetidin-3-yl)methyl)carbamoyl)phenyl)-4,5,6,7-tetrahydro-1H-pyrazolo[4,3-c]pyridine-3-carboxamide] |  | 121 | IC50 [1, 5]: 390 nM
